Results from ChEMBL document CHEMBL3751668, “A Pyrazolo[3,4-d]pyrimidin-4-amine Derivative Containing an Isoxazole Moiety Is a Selective and Potent Inhibitor of RET Gatekeeper Mutants” (J Med Chem, 2016).

Legend:
[1] = Cytotoxicity against mouse BAF3 cells after 48 hrs by MTT assay; assay type: cell-based
[2] = Cytotoxicity against human Nthy-ori 3-1 cells after 10 days by MTT assay; assay type: cell-based
[3] = target: T1, Proto-oncogene tyrosine-protein kinase receptor Ret (Homo sapiens, UniProt P07949); test: Inhibition of human wild type RET by radiometric assay in presence of [gamma-33P]-ATP
[4] = target: Proto-oncogene tyrosine-protein kinase receptor Ret (Homo sapiens, UniProt P07949, V804M); test: Inhibition of human Ret V804M mutant by radiometric assay in presence of [gamma-33P]-ATP
[5] = tested on: Proto-oncogene tyrosine-protein kinase receptor Ret (Homo sapiens), P07949 [V804M]; conditions: BaF3
[6] = target: T1, Proto-oncogene tyrosine-protein kinase receptor Ret; conditions: BaF3
Description: Inhibition of wild type TEL-fused RET (unknown origin) expressed in mouse BA/F3 cells assessed as cell growth inhibition after 48 hrs by MTT assay

[7] = tested on: Proto-oncogene tyrosine-protein kinase receptor Ret (Homo sapiens), P07949 [C634W]; conditions: TT
Description: Inhibition of RET C634W mutant in human TT cells assessed as cell growth inhibition after 10 days by MTT assay

[8] = target: Proto-oncogene tyrosine-protein kinase receptor Ret (Homo sapiens, UniProt P07949, G691S); test: Inhibition of human Ret G691S mutant by radiometric assay in presence of [gamma-33P]-ATP
[9] = target: Proto-oncogene tyrosine-protein kinase receptor Ret (Homo sapiens, UniProt P07949, Y791F); test: Inhibition of human Ret Y791F mutant by radiometric assay in presence of [gamma-33P]-ATP
[10] = target: Proto-oncogene tyrosine-protein kinase receptor Ret (Homo sapiens, UniProt P07949, V804L); test: Inhibition of human Ret V804L mutant by radiometric assay in presence of [gamma-33P]-ATP
[11] = target: Proto-oncogene tyrosine-protein kinase receptor Ret (Homo sapiens, UniProt P07949, S891A); test: Inhibition of human Ret S891A mutant by radiometric assay in presence of [gamma-33P]-ATP
[12] = target: Proto-oncogene tyrosine-protein kinase receptor Ret (Homo sapiens, UniProt P07949, M918T); test: Inhibition of human Ret M918T mutant by radiometric assay in presence of [gamma-33P]-ATP
[13] = Induction of apoptosis in human Nthy-ori 3-1 cells at 1 to 10 uM after 48 hrs by annexinV/PI staining-based flow cytometric analysis; assay type: cell-based; conditions: nthy-ori 3-1, 48 h
[14] = Cell cycle arrest in human Nthy-ori 3-1 cells at 1 to 10 uM after 24 hrs by […] staining-based flow cytometric analysis; conditions: nthy-ori 3-1, 24 h
TT [15] = test: Cytotoxicity against human TT cells assessed as suppression of anchorage-independent growth at 0.3 to 1 uM for 30 days by soft agar assay; assay type: functional
[16] = tested on: Proto-oncogene tyrosine-protein kinase receptor Ret (Homo sapiens), P07949 [V804L]; conditions: BaF3
[17] = tested on: Proto-oncogene tyrosine-protein kinase receptor Ret (Homo sapiens), P07949 [S891A]; conditions: BaF3
[18] = Cell cycle arrest in human Nthy-ori 3-1 cells assessed as accumulation at G2 phase at 10 uM after 24 hrs by […] staining-based flow cytometric analysis; conditions: nthy-ori 3-1, 24 h
[19] = Induction of apoptosis in human Nthy-ori 3-1 cells at 10 uM after 48 hrs by annexinV/PI staining-based flow cytometric analysis; assay type: cell-based; conditions: nthy-ori 3-1, 48 h
TT [20] = test: Cytotoxicity against human TT cells assessed as suppression of anchorage-independent growth at 1 uM for 30 days by soft agar assay; assay type: functional

T1 sequence (P07949 whole entry): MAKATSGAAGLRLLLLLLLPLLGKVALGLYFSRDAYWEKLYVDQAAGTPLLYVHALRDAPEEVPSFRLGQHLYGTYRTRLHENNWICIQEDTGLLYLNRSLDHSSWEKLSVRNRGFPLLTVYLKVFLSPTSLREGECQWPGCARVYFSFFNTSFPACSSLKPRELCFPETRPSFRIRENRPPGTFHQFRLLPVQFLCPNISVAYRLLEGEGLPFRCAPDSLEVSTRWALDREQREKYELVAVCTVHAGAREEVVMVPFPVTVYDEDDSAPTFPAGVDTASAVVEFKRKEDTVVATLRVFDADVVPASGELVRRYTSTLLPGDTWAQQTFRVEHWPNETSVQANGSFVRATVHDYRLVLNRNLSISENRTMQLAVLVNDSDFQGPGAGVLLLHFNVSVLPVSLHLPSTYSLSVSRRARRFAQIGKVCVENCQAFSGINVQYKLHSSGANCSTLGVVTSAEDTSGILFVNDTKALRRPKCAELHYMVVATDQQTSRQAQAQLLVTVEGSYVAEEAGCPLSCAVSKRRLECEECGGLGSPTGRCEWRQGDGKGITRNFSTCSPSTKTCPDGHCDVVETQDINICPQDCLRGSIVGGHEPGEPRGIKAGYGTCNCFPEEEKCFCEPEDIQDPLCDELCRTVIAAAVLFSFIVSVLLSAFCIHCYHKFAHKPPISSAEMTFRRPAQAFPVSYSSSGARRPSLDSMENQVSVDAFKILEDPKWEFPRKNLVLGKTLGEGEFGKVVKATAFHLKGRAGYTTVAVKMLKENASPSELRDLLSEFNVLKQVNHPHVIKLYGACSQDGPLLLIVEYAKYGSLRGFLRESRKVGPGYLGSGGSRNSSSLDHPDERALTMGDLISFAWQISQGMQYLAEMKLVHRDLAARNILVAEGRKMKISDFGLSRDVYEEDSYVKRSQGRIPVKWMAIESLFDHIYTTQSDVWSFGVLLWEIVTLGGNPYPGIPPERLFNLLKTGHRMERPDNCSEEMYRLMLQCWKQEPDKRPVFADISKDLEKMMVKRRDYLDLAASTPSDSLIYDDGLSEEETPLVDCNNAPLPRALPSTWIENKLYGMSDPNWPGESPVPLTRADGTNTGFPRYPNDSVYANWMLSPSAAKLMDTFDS
Chain of Proto-oncogene tyrosine-protein kinase receptor Ret (Homo sapiens, UniProt P07949, V804M) (P07949 29-1114 V804M limits assumed): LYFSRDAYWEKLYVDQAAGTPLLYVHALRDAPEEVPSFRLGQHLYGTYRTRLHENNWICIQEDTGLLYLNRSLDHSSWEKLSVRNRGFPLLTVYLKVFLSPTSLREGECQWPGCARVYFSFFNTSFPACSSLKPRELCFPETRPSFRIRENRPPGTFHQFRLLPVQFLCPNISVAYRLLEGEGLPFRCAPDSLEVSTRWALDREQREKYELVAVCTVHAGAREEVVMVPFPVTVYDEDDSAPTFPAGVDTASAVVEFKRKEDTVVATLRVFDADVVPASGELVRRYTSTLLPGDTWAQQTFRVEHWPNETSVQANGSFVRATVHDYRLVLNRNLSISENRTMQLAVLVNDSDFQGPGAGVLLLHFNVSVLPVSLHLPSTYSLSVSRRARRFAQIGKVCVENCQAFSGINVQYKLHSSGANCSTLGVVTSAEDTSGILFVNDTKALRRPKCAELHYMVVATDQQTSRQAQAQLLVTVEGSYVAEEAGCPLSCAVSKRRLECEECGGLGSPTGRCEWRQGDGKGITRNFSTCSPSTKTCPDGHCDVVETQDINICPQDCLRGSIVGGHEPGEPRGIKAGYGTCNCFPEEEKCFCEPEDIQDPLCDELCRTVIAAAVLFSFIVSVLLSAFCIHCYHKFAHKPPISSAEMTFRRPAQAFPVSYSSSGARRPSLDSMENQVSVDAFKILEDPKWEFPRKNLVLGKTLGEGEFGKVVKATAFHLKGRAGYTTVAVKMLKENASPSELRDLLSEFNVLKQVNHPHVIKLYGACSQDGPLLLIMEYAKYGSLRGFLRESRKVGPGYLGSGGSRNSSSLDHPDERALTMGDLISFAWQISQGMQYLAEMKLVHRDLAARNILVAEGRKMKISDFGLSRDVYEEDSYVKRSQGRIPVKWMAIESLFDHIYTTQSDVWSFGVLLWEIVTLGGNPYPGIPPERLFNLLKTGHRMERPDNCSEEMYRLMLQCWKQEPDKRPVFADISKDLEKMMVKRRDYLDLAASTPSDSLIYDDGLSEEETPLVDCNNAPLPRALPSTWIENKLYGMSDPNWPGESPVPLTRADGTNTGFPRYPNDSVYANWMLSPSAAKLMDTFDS
Chain of Proto-oncogene tyrosine-protein kinase receptor Ret (Homo sapiens), P07949 [C634W] (P07949 whole entry C634W): as the sequence (P07949 whole entry) above, with C634W counted along it
Chain of Proto-oncogene tyrosine-protein kinase receptor Ret (Homo sapiens), P07949 [V804M] (P07949 whole entry V804M): as the sequence (P07949 whole entry) above, with V804M counted along it
Chain of Proto-oncogene tyrosine-protein kinase receptor Ret (Homo sapiens), P07949 [V804L] (P07949 whole entry V804L): as the sequence (P07949 whole entry) above, with V804L counted along it
Chain of Proto-oncogene tyrosine-protein kinase receptor Ret (Homo sapiens), P07949 [S891A] (P07949 whole entry S891A): as the sequence (P07949 whole entry) above, with S891A counted along it
Chain of Proto-oncogene tyrosine-protein kinase receptor Ret (Homo sapiens, UniProt P07949, G691S) (P07949 29-1114 G691S limits assumed): as the sequence (P07949 29-1114 V804M limits assumed) above, with G663S, M776V counted along it
Chain of Proto-oncogene tyrosine-protein kinase receptor Ret (Homo sapiens, UniProt P07949, V804L) (P07949 29-1114 V804L limits assumed): as the sequence (P07949 29-1114 V804M limits assumed) above, with M776L counted along it
Chain of Proto-oncogene tyrosine-protein kinase receptor Ret (Homo sapiens, UniProt P07949, M918T) (P07949 29-1114 M918T limits assumed): as the sequence (P07949 29-1114 V804M limits assumed) above, with M776V, M890T counted along it
Chain of Proto-oncogene tyrosine-protein kinase receptor Ret (Homo sapiens, UniProt P07949, S891A) (P07949 29-1114 S891A limits assumed): as the sequence (P07949 29-1114 V804M limits assumed) above, with M776V, S863A counted along it
Chain of Proto-oncogene tyrosine-protein kinase receptor Ret (Homo sapiens, UniProt P07949, Y791F) (P07949 29-1114 Y791F limits assumed): as the sequence (P07949 29-1114 V804M limits assumed) above, with Y763F, M776V counted along it

Row | Compound | GI50 at 48 h [1] [µM] | GI50 at 240 h [2] [µM] | IC50 [3] [µM] | IC50 [4] [µM] | GI50 [5] [µM] | GI50 [6] [µM] | GI50 [7] [µM] | IC50 [8] [µM] | IC50 [9] [µM] | IC50 [10] [µM] | IC50 [11] [µM] | IC50 [12] [µM] | Activity [13] | Activity [14] | Activity (TT [15]) [CFU] | GI50 [16] [µM] | GI50 [17] [µM] | Activity [18] | Activity [19] | Activity (TT [20]) [CFU]
1 | CC(C)n1nc(-c2cc(-c3ccccn3)on2)c2c(N)ncnc21 | 5.3 | 1.63 | 0.91 | 5.88 | 0.7 | 1.11 | 9.26 | – | – | – | – | – | – | – | – | – | – | – | – | –
2 | CC(C)n1nc(-c2cc(C3CCCC3)on2)c2c(N)ncnc21 | > 10 | 11.5 | 0.241 | 1.57 | > 10 | 7.12 | > 10 | – | – | – | – | – | – | – | – | – | – | – | – | –
3 | Nc1ncnc2c1c(-c1cc(C3CC3)on1)nn2Cc1ccccc1 | > 10 | 39.6 | 0.074 | 0.557 | > 10 | > 10 | > 10 | – | – | – | – | – | – | – | – | – | – | – | – | –
4 | CC(C)n1nc(-c2cc(-c3ccccc3)on2)c2c(N)ncnc21 | > 10 | 5.72 | 0.19 | – | 4.97 | 3.46 | > 10 | – | – | – | – | – | – | – | – | – | – | – | – | –
5 | CC(C)n1nc(/C=N/O)c2c(N)ncnc21 | > 10 | 107 | 4.9 | 3.68 | > 10 | > 10 | > 10 | – | – | – | – | – | – | – | – | – | – | – | – | –
6 | CC(C)(O)Cn1nc(-c2cc(C3CC3)on2)c2c(N)ncnc21 | > 10 | 2.82 | 0.068 | 0.217 | 6.75 | 1.77 | 4.25 | – | – | – | – | – | – | – | – | – | – | – | – | –
7 | CC(C)n1nc(C#Cc2ccccc2)c2c(N)ncnc21 | 16.1 | 3.58 | – | 2.65 | 2.6 | 0.61 | 2.54 | 0.075 | 0.014 | 3.13 | 0.054 | 0.057 | Non-toxic | Non-toxic | 150 | 5.43 | 0.35 | – | – | –
8 | CC(C)n1nc(/C=N/OCc2ccccc2)c2c(N)ncnc21 | > 10 | 9.85 | 8.33 | – | > 10 | 7.41 | 9.27 | – | – | – | – | – | – | – | – | – | – | – | – | –
9 | Cn1nc(-c2cc(C3CC3)on2)c2c(N)ncnc21 | > 10 | 28.7 | 0.027 | 0.182 | 5.56 | 2.67 | 3.51 | – | – | – | – | – | – | – | – | – | – | – | – | –
10 | CC(C)n1nc(C2=NOC(c3ccccc3)C2)c2c(N)ncnc21 (stereo unspecified) | > 10 | 18.9 | 0.583 | 5.68 | > 10 | 6.24 | > 10 | – | – | – | – | – | – | – | – | – | – | – | – | –
11 | Nc1ncnc2c1c(-c1cc(C3CC3)on1)nn2C1CCCCC1 | > 10 | 32.5 | 0.002 | 0.014 | 2 | 0.52 | 0.29 | – | – | – | – | – | – | – | – | – | – | – | – | –
12 | CC(C)n1nc(-c2cc(C(C)(C)C)on2)c2c(N)ncnc21 | > 10 | 24.7 | 0.21 | 2.1 | 7.31 | 6.12 | > 10 | – | – | – | – | – | – | – | – | – | – | – | – | –
13 | CCc1cc(-c2nn(C(C)C)c3ncnc(N)c23)no1 | > 10 | 28.6 | 0.041 | 0.531 | 5.77 | 1.56 | 2.61 | – | – | – | – | – | – | – | – | – | – | – | – | –
14 | CCCCCCCn1nc(-c2cc(C3CC3)on2)c2c(N)ncnc21 | > 10 | 31.6 | 0.096 | 0.927 | > 10 | > 10 | > 10 | – | – | – | – | – | – | – | – | – | – | – | – | –
15 | Nc1ncnc2c1c(-c1cc(C3CC3)on1)nn2C1CCOCC1 | > 10 | 32.9 | 0.005 | 0.041 | 1.93 | 0.44 | 0.94 | – | – | – | – | – | – | – | – | – | – | – | – | –
16 | CC(C)n1nc(-c2cc(Cc3ccccc3)on2)c2c(N)ncnc21 | > 10 | 21.5 | 0.241 | 1.99 | > 10 | > 10 | > 10 | – | – | – | – | – | – | – | – | – | – | – | – | –
17 | CC(C)n1nc(-c2cc(C3CCCCC3)on2)c2c(N)ncnc21 | > 10 | 4.11 | 0.91 | – | 4.73 | 9.5 | > 10 | – | – | – | – | – | – | – | – | – | – | – | – | –
18 | COc1cc2nccc(Oc3ccc(NC(=O)C4(C(=O)Nc5ccc(F)cc5)CC4)cc3)c2cc1OC [CABOZANTINIB] | – | 4.93 | – | – | 0.89 | 0.05 | 0.12 | – | – | – | – | – | – | – | – | 0.91 | 0.01 | Toxic | Non-toxic | <3
19 | CC(C)n1nc(-c2ccon2)c2c(N)ncnc21 | > 10 | 18.6 | 0.213 | 0.903 | 8.94 | 3.21 | 7.92 | – | – | – | – | – | – | – | – | – | – | – | – | –
20 | CC(C)c1cc(-c2nn(C(C)C)c3ncnc(N)c23)no1 | > 10 | 23.7 | 0.041 | 0.355 | 5.9 | 2.4 | 5.13 | – | – | – | – | – | – | – | – | – | – | – | – | –
21 | Nc1ncnc2[nH]nc(-c3cc(C4CC4)on3)c12 | > 10 | 0.51 | 0.052 | 0.354 | > 10 | 5.34 | > 10 | – | – | – | – | – | – | – | – | – | – | – | – | –
22 | CC(C)n1nc(-c2cc(-c3ccc(F)cc3)on2)c2c(N)ncnc21 | > 10 | 9.77 | 0.15 | – | > 10 | > 10 | > 10 | – | – | – | – | – | – | – | – | – | – | – | – | –
